The values that follow come from US20180289702A1, “LPA LEVEL REDUCTION FOR TREATING CENTRAL NERVOUS SYSTEM DISORDERS” (priority 2015, published 2018).

Data set [1] has as its system MCAO mouse model of stroke. In words: medial cerebral artery occlusion (MCAO) mouse model of stroke. Format: in vivo, mice. The settings on record: 30 mg/kg i.p. 3 hours prior to MCAO. The protocol: (§1) For stroke experiments, mice were anesthetized and occlusion of the medial cerebral artery (MCAO) was performed for 30 min (assessment after 3 days) or for 1 h (assessment after 1day) by introduction of an intraluminal filament as reported (Ploen et al., 2014). […] After 1 h or after 30 min of MCAO, respectively, mice recovered and were perfused 24 hours (1 h MCAO) or 72 hours (30 min MCAO) later. Brains were extracted, snap frozen and cryosectioned using a cryotome. Mounted brain slices were Nissl-Stained which allowed to measure infarct area and to calculate total infarct volume per animal. All measurements were performed in a blinded fashion. Data was assessed for normality and statistical analysis was performed using an one-tailed t-test.

The test system of data set [2] is LPA species (LPA 16:0, 18:1, 18:2). In words: LPA species in cerebrospinal fluid (LC-ESI-MS/MS). In kind it is in vivo. The conditions noted are these: PRG-1 Ko mice, intraperitoneal injection. The protocol:
LPA analysis was performed with liquid chromatography-electrospray ionization-tandem mass spectrometry (LC-ESI-MS/MS). The LC-MS/MS system consisted in a hybrid triple quadrupole-ion trap QTrap 5500 mass spectrometer (AB Sciex, Germany) equipped with a Turbo-V-source operating in negative ESI mode, an Agilent 1200 binary HPLC pump, column oven (40° C.) and degasser and an HTC Pal autosampler.
Two cycles of […] extraction of LPAs were done with 1-buthanol after adding the internal standard LPA17:0 to the sample (50 μl sample, 20 μl internal standard in 500 μl 1-butanol). The combined organic phases were dried under a gentle stream of nitrogen at 45° C. and subsequently re-dissolved in 200 μl methanol.
For the chromatographic separation a C18 column (Mercury 20×2 mm, 3 μm, 100 Å) and precolumn were used (Phenomenex, Germany). A linear gradient was employed at 400 μl/min. Mobile phase A was water with ammonium formate 50 mM and formic acid (100:0.2, v/v) and mobile phase B acetonitrile/formic acid (100:0.1, v/v), total run time 7 min, injection volume 20 μl. The mass spectrometer operated in the negative ion mode with an electrospray voltage of −4500 V at 350° C. Multiple reaction monitoring (MRM) was used for quantification. […] Quantitation was performed with Analyst Software V1.5 (Applied Biosystems) using the internal standard method with 1/concentration^2 weighting. […]

The test system of data set [3] is PRG-1+/− mice. In words: pre-pulse inhibition (PPI) of the startle response in PRG-1+/− mice. In kind it is in vivo. The conditions noted are these: i.p. 3 hours prior to PPI, level not different to wt. How it is done: (§2) Animals were treated using the in-vivo potent autotaxin inhibitor PF 8380 (Gierse et al., 2010). Animals received a single i.p. injection 3 hours prior to PPI.

Data set [4] relates to animal model of schizophrenia induced by ketamine. In words: ketamine-induced animal model of schizophrenia: PPI and open field hyperactivity. Format: in vivo, mice. The source says:
In order to correlate these electrophysiological effects with behavior in these mice, the inventors first analyzed PPI after ketamine application. […] In sum, ATX-inhibition has the general potential to normalize E/I balance in psychiatric disorders associated with increased glutamatergic input and opens a new therapeutic avenue towards treatment of psychiatric disorders.

For another data set, the target named is autotaxin (Homo sapiens, UniProt Q13822). The settings on record: Gierse et al., 2010; cited from earlier work.
Data set [5] can be described thus: PF8380 concentration in serum and cerebrospinal fluid by mass spectrometry. Format: in vivo, mice. How it is done:
as §2
Nanoscale UPLC separation was performed with a nanoAcquity UPLC system (Waters Corporation) equipped with a PepSwift Monolithic PS-DVB, 200 μm×5 cm analytical column (Thermo Scientific Dionex). For analysis, samples (300 nL) were directly injected onto the analytical column. Mobile phase A was water containing 0.1% v/v formic acid, while mobile phase B was ACN containing 0.1% v/v formic acid. Samples were separated at 55° C. with a gradient of 1-35% mobile phase B over 20 min at a flow rate of 800 nL/min. The column was rinsed for 7 min with 99% mobile phase B, followed by a re-equilibration step at initial conditions resulting in total analysis times of 40 min.
Mass spectrometric analysis of PF-8380 was performed in positive mode ESI using a Synapt G2-S HDMS mass spectrometer (Waters Corporation). Samples were analyzed using a targeted MS-method isolating the singly charged precursor of PF-8380. […] All samples and references were analyzed in three technical replicates.
Raw data were analyzed manually using MassLynx V4.1 Software (Waters Corporation). Extracted ion chromatograms of fragment ions at m/z 301 were used for quantitative analysis calculating the area under the curve. […]

Another data set deals with wild type (WT) animals. In words: mEPSC recordings with PF8380, wild type. Format: cell-based, mice.
Another data set concerns PRG-1 Ko mice. In words: mEPSC recordings with PF8380, PRG-1 Ko. The conditions noted are these: 1 μM. In kind it is cell-based.
A further data set relates to mice. In words: food intake after overnight food deprivation. In kind it is in vivo. The source says: Metabolic alterations like overnight fasting induce changes in LPA subtype composition (Ino M et al. 2012). This correlates with the increased activity of ATX after overnight food deprivation, the availability of the ATX substrate LPC but also with the substrate preferences of ATX for unsaturated LPCs. In order to understand the cortical effects of altered LPA-composition upon fasting, the inventors analyzed food consumption after overnight food deprivation in control and PF8380-treated animals. […] However, overnight food deprivation was not related to hyperlocomotion since travelled distance in an open field setting was not different between control, overnight food deprived and PF-treated overnight food deprived animals (FIG. 19B).

The test system of data set [6] is PRG-1+/− mice. In words: MCAO stroke model in PRG-1+/− mice. In kind it is in vivo. How it is done: as §1

For the compound `O=C(CCN1CCN(C(=O)OCc2cc(Cl)cc(Cl)c2)CC1)c1ccc2[nH]c(=O)oc2c1` [PF8380, 4-[3-(2,3-Dihydro-2-oxo-6-benzoxazolyl)-3-oxopropyl]-1-piperazinecarboxylic acid (3,5-dichlorophenyl)methyl ester], the infarct size result in data set [1] (after 1 day (1 h MCAO)) and in data set [1] (after 3 days (30 min MCAO)) was “significantly reduced” in each case. Besides, the “main LPA species (LPA 16:0, 18:1, 18:2) in CSF” value in data set [2] was “significant decrease”. In addition, the PPI-deficit entry in the data set on PRG-1+/− mice [3] is reported as “significantly rescued”. Further, in data set [4], the PPI result is “rescued to WT values”. In addition, in [4], the “hyperactivity following ketamine application in an open field setting” value is recorded as “significantly reduced”. Moreover, at autotaxin, the “potency as inhibitor of the LPA-synthetizing enzyme autotaxin” value is reported as “nanomolar potency”. Further, the “concentrations in the serum” value in data set [5] (in-vivo application 30 mg/KG/BW) is reported as “robust concentrations”. In [5] (mouse, cerebrospinal fluid, ip, 30 mg/KG/BW, single i.p. injection, 3 hours after injection), this compound showed a concentration at 3 h of no more than 420 nM. In the data set on wild type (WT) animals, the mEPSC amplitudes entry is on record as “did not affect”. In addition, the mEPSC frequency result with wild type (WT) animals was “did not affect”; in the data set on PRG-1 Ko mice, “significantly reduced”. The mEPSC amplitude entry in the data set with PRG-1 Ko mice was “not influencing”. For the same compound, the food intake result with mice (control mice (not food deprived)) is “does not alter”; with mice (overnight food deprived animals, within 60 min), “significantly decreased”. The infarct volume result in the data set on PRG-1+/− mice [6] (30 min MCAO measured 3 d after stroke) is on record as “significantly decreased”. The “outcome in modified Neurologic Severity Score” value in the data set with PRG-1+/− mice [6] (3 h, 24 h, 48 h and 72 h post MCAO) is “significantly improves”. The “long-term sensorimotor dysfunction, corner test” value in the data set with PRG-1+/− mice [6] (24 h up to 72 h post MCAO) was “significantly improved”.
